Results as given in patent US20260325533A1, “CDK INHIBITOR COMPOUNDS” (ALEKSIA THERAPEUTICS, INC., priority 2023, published 2026).
Read-outs that look alike come from different tables or passages of the source.

Tests used:
Format in all cases: biochemical
[1] = biological target: CDK2/CCNE1 (Homo sapiens, UniProt P24941); assay: CDK2 homogeneous time-resolved fluorescence (HTRF) kinase assay; conditions: CDK2/CCNE
How it was run: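 An HTRF format measures CDK2/CCNE1 (3 nM) phosphorylating a 4E-BP1 Thr37/46 peptide at high (1 mM) ATP. Reactions run one hour at 23 °C, then EDTA-quenched and probed with Eu-labelled phospho-specific antibody.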

[2] = biological target: CDK6/CCND1 (Homo sapiens, UniProt Q00534); assay: CDK6 homogeneous time-resolved fluorescence (HTRF) kinase assay; conditions: CDK6/CCND
Chain of CDK6/CCND1 (Q00534 whole entry): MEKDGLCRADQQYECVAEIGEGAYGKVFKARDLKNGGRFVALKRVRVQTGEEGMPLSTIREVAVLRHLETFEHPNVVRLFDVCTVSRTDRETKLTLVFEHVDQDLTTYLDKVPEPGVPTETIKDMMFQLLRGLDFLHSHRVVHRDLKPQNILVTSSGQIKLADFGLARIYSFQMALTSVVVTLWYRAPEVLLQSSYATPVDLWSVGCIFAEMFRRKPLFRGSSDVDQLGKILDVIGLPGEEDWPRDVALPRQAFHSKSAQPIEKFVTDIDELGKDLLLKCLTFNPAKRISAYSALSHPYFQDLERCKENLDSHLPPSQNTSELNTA
Chain of CDK6/CCND1 (P24385 whole entry partner): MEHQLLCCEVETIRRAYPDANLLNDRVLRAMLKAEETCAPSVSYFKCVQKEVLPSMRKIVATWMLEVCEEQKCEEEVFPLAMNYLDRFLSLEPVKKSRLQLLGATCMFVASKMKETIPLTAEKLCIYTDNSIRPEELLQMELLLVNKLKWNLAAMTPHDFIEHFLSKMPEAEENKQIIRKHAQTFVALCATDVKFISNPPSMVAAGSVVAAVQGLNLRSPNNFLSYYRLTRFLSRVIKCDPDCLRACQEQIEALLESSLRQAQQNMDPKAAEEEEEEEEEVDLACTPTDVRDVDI
How it was run: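 Assay conditions: HEPES buffer containing 10 mM MgCl2, 1 mM EGTA, 2 mM DTT, 0.01% Tween 20; 1 nM CDK6/CCND1, 50 nM peptide substrate, 1 mM ATP. Detection after 60 min reaction used 2 nM europium antibody with 340 nm excitation. Potency fitted from half-log series, 11 points.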

[3] = biological target: CDK1/CCNB1 (Homo sapiens, UniProt P06493); assay: CDK1 homogeneous time-resolved fluorescence (HTRF) kinase assay; conditions: CDK1/CCNB; >250 nM marked x; read-out: CDK1/CCNB IC50 >250 nM
Chain of CDK1/CCNB1 (P06493 whole entry): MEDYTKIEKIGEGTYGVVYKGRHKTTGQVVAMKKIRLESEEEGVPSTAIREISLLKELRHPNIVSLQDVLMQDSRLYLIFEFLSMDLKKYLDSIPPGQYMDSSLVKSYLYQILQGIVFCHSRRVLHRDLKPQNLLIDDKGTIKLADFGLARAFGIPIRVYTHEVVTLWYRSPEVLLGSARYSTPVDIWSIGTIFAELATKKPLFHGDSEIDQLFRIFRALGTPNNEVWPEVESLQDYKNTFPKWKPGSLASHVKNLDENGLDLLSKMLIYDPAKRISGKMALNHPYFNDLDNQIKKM
Chain of CDK1/CCNB1 (P14635 whole entry partner): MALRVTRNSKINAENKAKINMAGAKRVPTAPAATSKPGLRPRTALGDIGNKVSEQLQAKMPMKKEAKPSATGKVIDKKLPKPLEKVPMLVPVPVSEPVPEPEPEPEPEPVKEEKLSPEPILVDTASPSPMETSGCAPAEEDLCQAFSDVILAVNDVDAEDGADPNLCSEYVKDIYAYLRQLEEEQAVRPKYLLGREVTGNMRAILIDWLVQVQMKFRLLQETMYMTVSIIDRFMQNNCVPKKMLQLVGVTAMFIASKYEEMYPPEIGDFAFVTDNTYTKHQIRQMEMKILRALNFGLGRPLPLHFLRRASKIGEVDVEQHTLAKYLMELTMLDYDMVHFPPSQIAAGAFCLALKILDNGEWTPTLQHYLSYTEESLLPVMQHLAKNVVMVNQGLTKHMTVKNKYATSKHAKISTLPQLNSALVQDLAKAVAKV
How it was run: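 Kinase activity is measured as Lance signal (665 nm, or 665/615 nm ratio) from europium-labelled anti-phospho-Thr37/46 antibody binding ULight-4E-BP1 peptide. Reactions contain 0.5 nM enzyme, 1 mM ATP, 1% DMSO and run 60 min at 23 °C before EDTA quench.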

[4] = biological target: CDK4/CCND3 (Homo sapiens, UniProt P11802); assay: CDK4 homogeneous time-resolved fluorescence (HTRF) kinase assay; conditions: CDK4/CCND
Chain of CDK4/CCND3 (P11802 whole entry): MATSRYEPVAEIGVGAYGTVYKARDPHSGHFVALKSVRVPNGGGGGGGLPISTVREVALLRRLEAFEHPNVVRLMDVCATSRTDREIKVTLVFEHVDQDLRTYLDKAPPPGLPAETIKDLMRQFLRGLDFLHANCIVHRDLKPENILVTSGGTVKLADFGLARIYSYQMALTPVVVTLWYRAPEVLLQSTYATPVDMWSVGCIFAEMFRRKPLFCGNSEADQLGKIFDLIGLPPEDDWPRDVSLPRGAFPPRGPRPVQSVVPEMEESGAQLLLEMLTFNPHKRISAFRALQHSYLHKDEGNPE
Chain of CDK4/CCND3 (P30281 whole entry partner): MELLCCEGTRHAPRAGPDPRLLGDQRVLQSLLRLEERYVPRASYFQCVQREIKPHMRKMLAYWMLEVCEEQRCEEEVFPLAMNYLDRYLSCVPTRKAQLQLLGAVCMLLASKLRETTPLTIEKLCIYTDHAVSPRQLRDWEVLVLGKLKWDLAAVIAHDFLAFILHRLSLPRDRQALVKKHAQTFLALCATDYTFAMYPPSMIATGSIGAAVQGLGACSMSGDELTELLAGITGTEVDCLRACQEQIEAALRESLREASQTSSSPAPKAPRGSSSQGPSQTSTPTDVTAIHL
How it was run: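 IC50s derive from Lance 665 nm or 665/615 nm signals in 11-point, half-log dose series (top 10 μM, 1% DMSO). The enzyme, 1.5 nM CDK4/CCND3, phosphorylates 50 nM ULight-4E-BP1 peptide with 1 mM ATP over 60 min at 23 °C.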

[5] = <25 nM, read-out: CDK2/CCNE IC50 <25 nM
[6] = 25-250 nM marked x, read-out: CDK6/CCND IC50 25-250 nM
[7] = 25-250 nM marked x, read-out: CDK4/CCND IC50 25-250 nM
[8] = 25-250 nM marked x, read-out: CDK2/CCNE IC50 25-250 nM
[9] = >250 nM marked x, read-out: CDK6/CCND IC50 >250 nM
[10] = >250 nM marked x, read-out: CDK4/CCND IC50 >250 nM
[11] = >250 nM marked x, read-out: CDK2/CCNE IC50 >250 nM

| IC50 [1, 5] [nM] | IC50 [2, 6] [nM] | IC50 [3] [nM] | IC50 [4, 7] [nM] | IC50 [1, 8] [nM] | IC50 [2, 9] [nM] | IC50 [4, 10] [nM] | IC50 [1, 11] [nM] | SMILES |
| --- | --- | --- | --- | --- | --- | --- | --- | --- |
| – | – | > 250 | – | 25 to 250 | > 250 | > 250 | – | Cc1c(-c2nccc3cnc(Nc4ccc(S(C)(=O)=O)cc4)cc23)ccc2c1cnn2C1CCN(C)CC1 [Ex 242, 5-(4-methyl-1-(1-methylpiperidin-4-yl)-1H-indazol-5-yl)-N-(4-(methylsulfonyl)phenyl)-2,6-naphthyridin-3-amine] |
| – | 25 to 250 | > 250 | 25 to 250 | 25 to 250 | – | – | – | Cc1c(-c2nccc3cnc(Nc4ccc(S(C)(=O)=O)cc4)cc23)ccc2c1cnn2CC1CN(C)C1 [Ex 243, 5-(4-methyl-1-((1-methylazetidin-3-yl)methyl)-1H-indazol-5-yl)-N-(4-(methylsulfonyl)phenyl)-2,6-naphthyridin-3-amine] |
| – | 25 to 250 | > 250 | – | 25 to 250 | – | > 250 | – | CC(C)(C)c1nccc2cnc(Nc3ccc(S(C)(=O)=O)cc3)cc12 [Ex 244, 5-(tert-butyl)-N-(4-(methylsulfonyl)phenyl)-2,6-naphthyridin-3-amine] |
| – | – | > 250 | – | 25 to 250 | > 250 | > 250 | – | C=CS(=O)(=O)c1ccc(Nc2cc3c(-c4ccc5[nH]ncc5c4C)nccc3cn2)cc1 [Ex 245, 5-(4-methyl-1H-indazol-5-yl)-N-(4-(vinylsulfonyl)phenyl)-2,6-naphthyridin-3-amine] |
| – | 25 to 250 | > 250 | 25 to 250 | 25 to 250 | – | – | – | CC(=O)N[C@H]1CC[C@H](C#Cc2nccc3cnc(Nc4ccc(S(C)(=O)=O)cc4)cc23)CC1 [Ex 246, N-((1r,4r)-4-((7-((4-(methylsulfonyl)phenyl)amino)-2,6-naphthyridin-1-yl)ethynyl)cyclohexyl)acetamide] |
| – | 25 to 250 | > 250 | 25 to 250 | 25 to 250 | – | – | – | CS(=O)(=O)c1ccc(Nc2cc3c(C#C[C@H]4CC[C@H](N)CC4)nccc3cn2)cc1 [Ex 247, 5-(((1r,4r)-4-aminocyclohexyl)ethynyl)-N-(4-(methylsulfonyl)phenyl)-2,6-naphthyridin-3-amine] |
| – | – | > 250 | – | – | > 250 | > 250 | > 250 | CS(=O)(=O)c1ccc(Nc2cc3c(N4CC5(CN(c6ccc(C#N)cc6)C5)C4)nccc3cn2)cc1 [Ex 248, 4-(6-(7-((4-(methylsulfonyl)phenyl)amino)-2,6-naphthyridin-1-yl)-2,6-diazaspiro[3.3]heptan-2-yl)benzonitrile] |
| – | – | > 250 | 25 to 250 | – | > 250 | – | > 250 | CN(C)C/C=C/S(=O)(=O)c1ccc(Nc2cc3c(N4CCC(C#N)CC4)nccc3cn2)cc1 [Ex 249, (E)-1-(7-((4-((3-(dimethylamino)prop-1-en-1-yl)sulfonyl)phenyl)amino)-2,6-naphthyridin-1-yl)piperidine-4-carbonitrile] |
| < 25 | 25 to 250 | > 250 | 25 to 250 | – | – | – | – | Cc1c(-c2nccc3cnc(Nc4ccc(S(C)(=O)=O)cc4)cc23)ccc2nn(CC(N)=O)cc12 [Ex 250, 2-(4-methyl-5-(7-((4-(methylsulfonyl)phenyl)amino)-2,6-naphthyridin-1-yl)-2H-indazol-2-yl)acetamide] |

Second part, the compound before the results:

| SMILES | IC50 [1, 5] [nM] | IC50 [2, 6] [nM] | IC50 [3] [nM] | IC50 [4, 7] [nM] | IC50 [1, 8] [nM] | IC50 [2, 9] [nM] | IC50 [4, 10] [nM] | IC50 [1, 11] [nM] |
| --- | --- | --- | --- | --- | --- | --- | --- | --- |
| CS(=O)(=O)c1ccc(Nc2cc3c(C#CC4CC4)nccc3cn2)cc1 [Ex 214, 5-(cyclopropylethynyl)-N-(4-(methylsulfonyl)phenyl)-2,6-naphthyridin-3-amine] | < 25 | 25 to 250 | > 250 | 25 to 250 | – | – | – | – |
| Cc1c(-c2nccc3cnc(Nc4ccc(S(C)(=O)=O)cc4)cc23)ccc2c1cnn2CCC1CNC1 [Ex 216, 5-(1-(2-(azetidin-3-yl)ethyl)-4-methyl-1H-indazol-5-yl)-N-(4-(methylsulfonyl)phenyl)-2,6-naphthyridin-3-amine] | – | – | > 250 | – | 25 to 250 | > 250 | > 250 | – |
| C=CS(=O)(=O)c1ccc(Nc2cc3c(-c4cccc(CO)c4)nccc3cn2)cc1 [Ex 217, (3-(7-((4-(vinylsulfonyl)phenyl)amino)-2,6-naphthyridin-1-yl)phenyl)methanol] | – | – | > 250 | – | 25 to 250 | > 250 | > 250 | – |
| COc1c(-c2nccc3cnc(Nc4ccc(S(C)(=O)=O)cc4)cc23)ccc2[nH]ncc12 [Ex 220, 5-(4-methoxy-1H-indazol-5-yl)-N-(4-(methylsulfonyl)phenyl)-2,6-naphthyridin-3-amine] | – | – | > 250 | – | 25 to 250 | > 250 | > 250 | – |
| Cc1cc2[nH]ncc2cc1-c1nccc2cnc(Nc3ccc(S(=O)(=O)CCO)cc3)cc12 [Ex 222, 2-((4-((5-(6-methyl-1H-indazol-5-yl)-2,6-naphthyridin-3-yl)amino)phenyl)sulfonyl)ethan-1-ol] | – | – | > 250 | – | 25 to 250 | > 250 | > 250 | – |
| CS(=O)(=O)c1ccc(Nc2cc3c(ccnc3[C@H]3CC[C@H](C(N)=O)CC3)cn2)cc1 [Ex 223, (1r,4r)-4-(7-((4-(methylsulfonyl)phenyl)amino)-2,6-naphthyridin-1-yl)cyclohexane-1-carboxamide] | – | – | > 250 | 25 to 250 | 25 to 250 | > 250 | – | – |
| C=CCNC(=O)[C@H]1CC[C@H](c2nccc3cnc(Nc4ccc(S(C)(=O)=O)cc4)cc32)CC1 [Ex 224, (1r,4r)-N-allyl-4-(7-((4-(methylsulfonyl)phenyl)amino)-2,6-naphthyridin-1-yl)cyclohexane-1-carboxamide] | – | – | > 250 | – | 25 to 250 | > 250 | > 250 | – |
| CN(C)C(=O)[C@H]1CC[C@H](c2nccc3cnc(Nc4ccc(S(C)(=O)=O)cc4)cc32)CC1 [Ex 225, (1r,4r)-N,N-dimethyl-4-(7-((4-(methylsulfonyl)phenyl)amino)-2,6-naphthyridin-1-yl)cyclohexane-1-carboxamide] | – | – | > 250 | – | – | > 250 | > 250 | > 250 |
| CS(=O)(=O)c1ccc(Nc2cc3c(ccnc3[C@H]3CC[C@H](C(=O)NC4CCOCC4)CC3)cn2)cc1 [Ex 226, (1r,4r)-4-(7-((4-(methylsulfonyl)phenyl)amino)-2,6-naphthyridin-1-yl)-N-(tetrahydro-2H-pyran-4-yl)cyclohexane-1-carboxamide] | – | – | > 250 | – | – | > 250 | > 250 | > 250 |
| CN1CCN(C(=O)[C@H]2CC[C@H](c3nccc4cnc(Nc5ccc(S(C)(=O)=O)cc5)cc43)CC2)CC1 [Ex 227, (4-methylpiperazin-1-yl)((1r,4r)-4-(7-((4-(methylsulfonyl)phenyl)amino)-2,6-naphthyridin-1-yl)cyclohexyl)methanone] | – | – | > 250 | – | – | > 250 | > 250 | > 250 |
| CS(=O)(=O)c1ccc(Nc2cc3c(ccnc3[C@H]3CC[C@H](C(=O)N4CCSCC4)CC3)cn2)cc1 [Ex 228, ((1r,4r)-4-(7-((4-(methylsulfonyl)phenyl)amino)-2,6-naphthyridin-1-yl)cyclohexyl)(thiomorpholino)methanone] | – | – | > 250 | – | – | > 250 | > 250 | > 250 |
| C=CS(=O)(=O)c1ccc(Nc2cc3c(-c4ccc5cn[nH]c5c4)nccc3cn2)cc1 [Ex 241, 5-(1H-indazol-6-yl)-N-(4-(vinylsulfonyl)phenyl)-2,6-naphthyridin-3-amine] | – | 25 to 250 | > 250 | – | 25 to 250 | – | > 250 | – |
